# d = 2'-deoxy (DNA); r = 2'-OH (RNA)
# Test system: A549 cells-derived tumors
# Assay: Next-generation sequencing (NGS) of si-NT- and si-hSMAC-A-treated tumors
# Type: in vivo, human
# Protocol: Libraries were prepared by the INCPM-RNA-seq unit (Weizmann Institute, Israel). Briefly, polyA fraction (mRNA) was purified from 500 ng of total RNA, isolated as above, followed by fragmentation and generation of double stranded cDNA. End repair, a base addition, adapter ligation and PCR amplification steps were performed according to established methods. Libraries were evaluated by Qubit and TapeStation. Sequencing libraries were constructed with barcodes to allow multiplexing of 20 samples in one lane. Between 22 and 26 million reads single-end 60-bp reads were sequenced per sample on Illumina HiSeq 2500 V4 instrument.
# Bioinformatics analyses were carried out at the Bioinformatics Core Facility at the National Institute for Biotechnology in the Negev, Ben-Gurion University. Raw sequence reads were assessed for quality using FASTQC and further trimmed for removal of remaining adaptors and low quality bases using Trimmomatic. The trimmed reads from each sample were separately aligned to the human and mouse genomes (GRCh38 and GRCm38.75, respectively) using STAR v2.3.0 with default settings. An average of 23.7±0.8 million reads per sample was obtained. Of these, an average of 13, 2.6, 7.8 and 0.3 million reads were mapped to human only, mouse only, both human and mouse, and none of them, respectively. After rejection of multi-mapped reads, a total of 11.5±2.5 human-specific, uniquely mapped reads, and 2.3±1.7 mouse-specific, uniquely mapped reads were subjected for further analysis. The number of aligned reads per gene per sample were counted using HTSeq count with “intersection-nonempty” (to handle reads that overlap with more than one gene) and “no stranded” as parameters. The other parameters were set to their default. Normalization and statistical analysis for differential expression were carried out using DESeq2 v1.6.3. Fold change values were converted to linear scale, with a minus sign indicating down-regulation.
# Differentially expressed genes were defined as those having a p-value<0.05, and linear fold change>1.5 and <−1.5. Functional analysis was performed using the Gene Ontology system, DAVID and Expander software tools.
# NGS was used to investigate changes in patterns of gene expression in si-NT-TTs and si-hSMAC-A-TTs (FIG. 10, and Tables 3-5). […] As si-hSMAC is human-specific, any effect on mouse gene expression must be mediated by the human tumor cells.
# The major functional groups were changes were seen are presented below.
# [1] = vs si-NT-TTs, EXTRACELLULAR MATRIX
# [2] = vs si-NT-TTs, EXTRACELLULAR SPACE
# [3] = vs si-NT-TTs, METABOLISM RELATED ENZYMES
# [4] = vs si-NT-TTs, METABOLISM RELATED ENZYMES, listed as si-SMAC
# [5] = vs si-NT-TTs, REDOX STATE REGULATION
substance,measurement,setting,value
"si-hSMAC-A: siRNA to human SMAC/Diablo; sense 5′AAGCGGUGUUUCUCAGAAUUGtt3′ (SEQ ID NO:20), antisense 5′AACAAUUCUGAGAAACCCGCtt3′ (SEQ ID NO:21) (sense AAGCGGUGUUUCUCAGAAUUGTT; antisense AACAAUUCUGAGAAACCCGCTT; sense: sugars from the 5' end r21 d2, backbone not given here; antisense: sugars from the 5' end r20 d2, backbone not given here)",Fold change FBN1,[1],−1.7 fold
same,Fold change GPC6,[1],−1.8 fold
same,Fold change MMP2,[1],−2.9 fold
same,Fold change NLGN2,[1],−1.8 fold
same,Fold change SMOC1,[1],−1.6 fold
same,Fold change TGFBI,[1],−1.9 fold
same,Fold change VCAN,[1],−1.5 fold
same,Fold change VTN,[1],−1.6 fold
same,Fold change CCL24,[2],1.9 fold
same,Fold change CCL28,[2],1.9 fold
same,Fold change CPM,[2],−1.7 fold
same,Fold change CX3CL1,[2],1.6 fold
same,Fold change IGFBP1,[2],−1.6 fold
same,Fold change IGFBP3,[2],−1.8 fold
same,Fold change LGALS3,[2],1.6 fold
same,Fold change MST1,[2],−1.6 fold
same,Fold change PROC,[2],1.8 fold
same,Fold change SPINK1,[2],1.9 fold
same,Fold change SPINT1,[2],1.7 fold
same,Fold change WISP2,[2],−1.7 fold
same,Fold change ACSLA (acyl-CoA synthetase long-chain family member 4),[3],−1.6 fold
same,Fold change ADARB1,[3],−2.1 fold
same,Fold change ADH4,[3],−2.6 fold
same,Fold change ADI1,[3],1.8 fold
same,Fold change AGPAT2,[3],1.6 fold
same,Fold change B3GNT6,[3],2.1 fold
same,Fold change BLVRA,[3],1.7 fold
same,Fold change CAD,[3],−1.6 fold
same,Fold change CDA,[3],2.0 fold
same,Fold change CMAS,[3],1.5 fold
same,Fold change DGAT2,[3],4.9 fold
same,Fold change DGKD,[3],−1.5 fold
same,Fold change DHRS9,[3],2.8 fold
same,Fold change ELOVL3,[3],7.4 fold
same,Fold change ELOVL4,[3],145.2 fold
same,Fold change ENTPD8,[3],2.7 fold
same,Fold change FAR2,[3],4.1 fold
same,Fold change FASN,[3],−1.5 fold
same,Fold change FAXDC2,[3],2.1 fold
same,Fold change FUT3,[3],2.7 fold
same,Fold change FUT6,[3],1.8 fold
same,Fold change GALNT5,[3],1.6 fold
same,Fold change GALNT6,[3],1.9 fold
same,Fold change GALNT12,[3],1.6 fold
same,Fold change GCNT3,[3],1.7 fold
same,Fold change GPT2,[3],1.5 fold
same,Fold change LIPH,[3],1.9 fold
same,Fold change MGAT4B,[3],1.5 fold
same,Fold change ORMDL2,[3],1.5 fold
same,Fold change PADI1,[3],3.8 fold
same,Fold change PCK1,[3],−6.9 fold
same,Fold change PLCB4,[3],1.7 fold
same,Fold change SDR16C5,[3],3.0 fold
same,Fold change ST3GAL4,[3],1.5 fold
same,Fold change ST6GALNAC1,[3],1.6 fold
same,Fold change STARD10,[3],3.7 fold
same,Fold change ELOVL3,[4],7 fold
same,Fold change ELOVL4,[4],145 fold
same,Fold change ANXA10,"vs si-NT-TTs, Mitochondria",−1.7 fold
same,Fold change BIK,"vs si-NT-TTs, Mitochondria",2.1 fold
same,Fold change C10orf2 (TWINK),"vs si-NT-TTs, Mitochondria",−1.9 fold
same,Fold change CHCHD7,"vs si-NT-TTs, Mitochondria",1.6 fold
same,Fold change CPS1,"vs si-NT-TTs, Mitochondria",−4.8 fold
same,Fold change CYP24A1,"vs si-NT-TTs, Mitochondria",−1.9 fold
same,Fold change ENDOG,"vs si-NT-TTs, Mitochondria",1.8 fold
same,Fold change MT-ND4L,"vs si-NT-TTs, Mitochondria",−1.9 fold
same,Fold change MT-ND5,"vs si-NT-TTs, Mitochondria",−1.6 fold
same,Fold change MYO19,"vs si-NT-TTs, Mitochondria",−1.6 fold
same,Fold change STARD13,"vs si-NT-TTs, Mitochondria",−2.2 fold
same,Fold change GSTP1,[5],−1.6 fold
same,Fold change NOS1,[5],−5.9 fold
same,Fold change PXDN,[5],3.3 fold
same,Fold change SOD2,[5],−1.9 fold
same,Fold change TXN,[5],2.1 fold
same,Fold change ANO1,"vs si-NT-TTs, TRANSPORTERS",3.4 fold
same,Fold change ATP10B,"vs si-NT-TTs, TRANSPORTERS",25.5 fold
same,Fold change CRACR2A,"vs si-NT-TTs, TRANSPORTERS",3.2 fold
same,Fold change GLTP,"vs si-NT-TTs, TRANSPORTERS",1.8 fold
same,Fold change KCNK1,"vs si-NT-TTs, TRANSPORTERS",1.7 fold
same,Fold change KCNN4,"vs si-NT-TTs, TRANSPORTERS",1.8 fold
same,Fold change SCNN1A,"vs si-NT-TTs, TRANSPORTERS",1.9 fold
same,Fold change SLC4A4,"vs si-NT-TTs, TRANSPORTERS",−3.3 fold
same,Fold change SLC6A9,"vs si-NT-TTs, TRANSPORTERS",−1.7 fold
same,Fold change SLC24A1,"vs si-NT-TTs, TRANSPORTERS",−1.6 fold
same,Fold change SLC25A37,"vs si-NT-TTs, TRANSPORTERS",−1.5 fold
same,Fold change SLC44A4,"vs si-NT-TTs, TRANSPORTERS",2.2 fold
same,Fold change SLC45A3,"vs si-NT-TTs, TRANSPORTERS",1.8 fold
same,Fold change SLCO2B1,"vs si-NT-TTs, TRANSPORTERS",−2.8 fold
same,Fold change TMC4,"vs si-NT-TTs, TRANSPORTERS",6.3 fold
same,Fold change TMC8,"vs si-NT-TTs, TRANSPORTERS",2.4 fold
same,Fold change ATP10B,"vs si-NT-TTs, TRANSPORTERS, listed as si-SMAC",25 fold
same,number of genes with significant changes,"≥1.5-fold change, adjusted P value<0.05, human and murine",848
